Laboratory results as given in patent publication US8476246B2, “Combination of a chemotherapeutic agent and an inhibitor of the TGF-beta system” (Antisense Pharma GmbH, priority 2009, dated 2013).
pIC50: −log10 of the molar value. Entries after “also recorded” stand apart in the source; their conditions may differ. Read-outs that look alike come from different tables or passages of the source.

Key:
Hup-T3 cells = assay: Proliferation/viability of Hup-T3 cells (EZ4U method); assay type: cell-based, human; details: gemcitabine 0.05 nM to 5 μM alone, 7 days, FIG. 2
Experimental: In a 96-well tissue culture plate 4000 cells/well of a human pancreatic tumor cell line Hup-T3 (German Collection of Microorganisms and Cell Cultures GmbH, Braunschweig, Germany) were seeded. The Hup-T3 cell line is not resistant to gemcitabine. One day after seeding, cells were co-treated with […] different gemcitabine concentrations, i.e., 5 μM, 2 μM, 800 nM, 320 nM, 128 nM, 51.2 nM, 20.5 nM, 8.2 nM, 3.3 nM and 0 nM gemcitabine, respectively, in combination with 0 μM (▪), 5 μM (Δ) or 10 μM (∇) TGF-beta 2 antisense oligonucleotide, for example SEQ ID No. 30, for 5 h. […]
The proliferation/viability of the Hup-T3 cells was analyzed using the EZ4U method according to the manufacturer's instructions (Biozol Diagnostca Vertrieb GmbH), and the OD was measured after an incubation time of 75 min with EZ4U solution using the plate reader “Fluostar-Optima” (BMG LABTECH GmbH). […]
The proliferation/viability of the Hup-T3 cells (▪) was analyzed using the EZ4U method according to the manufacturer's instructions (Biozol Diagnostca Vertrieb GmbH), and the OD was measured after an incubation time of 75 min with EZ4U solution using the plate reader “Fluostar-Optima” (BMG LABTECH GmbH).

TGF-beta 2 = TGF-beta 2 secretion of Hup-T3 cells (TGF-beta 2-ELISA of cell supernatants); assay type: cell-based, human
Experimental: After 7 days of total treatment, cell supernatants were removed and the TGF-beta 2 concentration was analyzed (see Example 4, and FIG. 4).
The effect of gemcitabine on TGF-beta 2 expression and secretion, respectively, was investigated on Hup-T3 cells. Gemcitabine was administered to the Hup-T3 cells in following concentrations: 5 μM, 0.5 μM, 50 nM, 5 nM, 0.5 nM, 0.05 nM or 0 nM, and the cells were incubated for 5 h according to Example 1. The treatment solution was optionally replaced after 3 days.
After 7 days of treatment, cell supernatants were removed for the analysis of TGF-beta 2 concentration. The TGF-beta 2 secretion (Δ) was quantified by a standard TGF-beta 2-ELISA Kit (R&D Systems, Minneapolis, USA) according to the manufacturer's instructions.
In a further experiment the effect of the TGF-beta 2 antisense oligonucleotide on the expression and secretion, respectively, of TGF-beta 2 was investigated on Hup-T3 cells. The TGF-beta 2 antisense oligonucleotide, for example SEQ ID No. 30, was administered to the Hup-T3 cells as described in Example 1 (0 μM, 1 μM, 2.5 μM, 5 μM, 10 μM, 20 μM, 40 μM, 60 μM, or 80 μM TGF-beta 2 antisense oligonucleotide). The cells were incubated according to Example 1 and after 7 days of treatment, the cell supernatants were removed for the analysis of TGF-beta 2 concentration using the TGF-beta 2-ELISA Kit of R&D Systems.
Hup-T3 cells were incubated with different concentrations of gemcitabine (2 μM, 800 nM, 320 nM, 128 nM, 51.2 nM, 20.5 nM, 8.2 nM, and 0 nM) and TGF-beta 2 antisense oligonucleotide according to Example 1 (0 μM (▪), 5 μM (Δ), or 10 μM (•) TGF-beta 2 antisense oligonucleotide) and the cell supernatants were removed after 7 days of treatment for the analysis of TGF-beta 2 concentration using the TGF-beta 2-ELISA Kit of R&D Systems.

[1] = test system: gemcitabine-resistant human bladder cancer cells; details: cited from earlier work
MEL-Juso cells = assay: Proliferation/viability of MEL-Juso cells (Cyquant method); assay type: cell-based, human; details: 10 μM TGF-beta 2 antisense oligonucleotide in comparison to 0 μM, FIG. 5
Experimental: In a 48-well tissue culture plate 10 000 cells/well of a human melanoma cell line MEL-Juso (CLS—Cell Lines Service, Eppelheim, Germany) were seeded. The MEL-Juso cell line is not resistant to temozolomide. Six hours after seeding, cells were co-treated with eight different temozolomid concentrations, i.e., 200 μM, 100 μM, 50 μM, 25 μM, 12.5 μM, 6.25 μM, 3.125 μM, and 0 μM temozolomide, respectively, in combination with 0 μM (▪), 5 μM (Δ) or 10 μM (∇) TGF-beta 2 antisense oligonucleotide, for example SEQ ID No. 30, for 2 days. Substances (temozolomide and TGF-beta 2 antisense oligonucleotide) were prepared in aqueous solution, stored at 4° C. and were used for 4 weeks. Thereafter the first treatment solution comprising temozolomidee and the TGF-beta 2 antisense oligonucleotide was removed and replaced by a second treatment solution containing the TGF-beta 2 antisense oligonucleotide and temozolomide in the above mentioned concentrations for further 2 days. […]
The proliferation/viability of the MEL-Juso cells was analyzed using the Cyquant method according to the manufacturer's instructions (Invitrogen), and the OD was measured after an incubation time of 60min with Cyquant solutions (detection reagent, direct nucleic acid stain, and direct nucleic acid background suppressor) using the plate reader “Fluostar-Optima” (BMG LABTECH GmbH).

A-172 cells = assay: Cytotoxicity on A-172 cells (LDH release, CytoToxicity Detection Kit Plus); assay type: cell-based; details: combination of temozolomide (200 or 800 μM) and 10 μM antisense oligonucleotide, 5 d
Experimental: A-172 cells (about 7000 cells/well) were seeded into 48-well plates, and 6 h after seeding 0 μM, 200 μM, or 800 μM temozolomide either alone (grey column) or in combination with 10 μM of a TGF-beta 2 antisense oligonuclotide (black column), for example SEQ ID No. 30, was added to the cells. After 2 d of incubation, the treatment solutions were replaced and cells were incubated for additional 3 d (total treatment time: 5 d). […] The cells of the supernatant were lysed by addition of lysis solution for example from the CytoToxicity Detection Kit Plus (Roche Diagnostics GmbH) and the LDH levels were determined for example according to the manual of the kit.

Row | Compound | effect of gemcitabine on proliferation and viability (Hup-T3 cells) | effect of gemcitabine on TGF-beta 2 secretion (TGF-beta 2; gemcitabine 0.05 nM to 5 μM, 7 days, FIG. 2) | effect of gemcitabine on the suppression of TGF-beta 2 secretion by TGF-beta 2 antisense oligonucleotide (TGF-beta 2; gemcitabine 8.2 nM to 2 μM with 5 or 10 μM antisense oligonucleotide, FIG. 4) | pIC50 ([1]; gemcitabine-resistant cells chemosensitized with sCLU-2 antisense oligonucleotide) | pIC50 ([1]; gemcitabine-resistant cells, before sCLU-2 antisense oligonucleotide) | effect on TGF-beta 2 secretion in the presence of gemcitabine (TGF-beta 2; 0, 5 or 10 μM antisense oligonucleotide, gemcitabine 8.2 nM to 2 μM, FIG. 4) | effect on TGF-beta 2 secretion (TGF-beta 2; antisense oligonucleotide 1 to 80 μM, no gemcitabine, 7 days, FIG. 3) | reduction of the IC50 of temozolomide (cytotoxicity) (MEL-Juso cells) | amount of released LDH (A-172 cells)
1 | Nc1ccn([C@@H]2O[C@H](CO)[C@@H](O)C2(F)F)c(=O)n1 [gemcitabine] | has a cytotoxic effect; also recorded: decreases at higher gemcitabine concentrations | does not specifically influence the TGF-beta 2 secretion; also recorded: no specific influence | does not impair the suppression of TGF-beta 2 secretion; also recorded: does not affect the inhibitory effect of the antisense oligonucleotide on its target | 8.00 | 7.00 | – | – | – | –
2 | CGGCATGTCTATTTTGTA (listed as DNA, chemistry not given here) [TGF-beta 2 antisense oligonucleotide] | – | – | – | – | – | inhibited TGF-beta 2 secretion in a dose dependent manner | inhibited the TGF-beta 2 expression and secretion, respectively, in a dose dependent manner; also recorded: dose dependent inhibitory effect | about 2 × | significantly increased
